# Key:
# Assay in all cases: cells
# Design in all cases: species or system JFCR39 human cancer cell lines; JFCR39 panel growth inhibition, sulforhodamine B total protein after 48 h
# [1] = tested on: ACHN; settings: 48 h; for GI50: Homo sapiens, ACHN
# Procedure, shortened: (§1)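 Growth inhibition in JFCR39 human cancer lines was quantified by the SRB total-protein method following 48 h compound treatment. GI50 came from duplicate runs.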
# [2] = tested on: DMS114; settings: for GI50: Homo sapiens, DMS-114, 48 h
# Procedure, shortened: as §1
# [3] = tested on: DU-145; settings: Homo sapiens, DU-145, 48 h
# Procedure, shortened: as §1
# [4] = tested on: HBC-4; settings: HBC4, 48 h
# Procedure, shortened: as §1
# [5] = tested on: HBC-5; settings: HBC5, 48 h
# Procedure, shortened: as §1
# [6] = tested on: HCT-116; settings: Homo sapiens, HCT-116, 48 h
# Procedure, shortened: as §1
# [7] = tested on: KM-12; settings: Homo sapiens, KM12, 48 h
# Procedure, shortened: as §1
# [8] = tested on: LOX-IMVI; settings: 48 h; for GI50: Homo sapiens, LOX IMVI
# Procedure, shortened: as §1
# [9] = tested on: MCF-7; settings: Homo sapiens, MCF7, 48 h
# Procedure, shortened: as §1
# [10] = tested on: MDA-MB-231; settings: Homo sapiens, MDA-MB-231, 48 h
# Procedure, shortened: as §1
# [11] = tested on: MKN1; settings: Homo sapiens, MKN-1, 48 h
# Procedure, shortened: as §1
# [12] = tested on: NCI-H23; settings: Homo sapiens, NCI-H23, 48 h
# Procedure, shortened: as §1
# [13] = tested on: NCI-H460; settings: for GI50: Homo sapiens, NCI-H460, 48 h
# Procedure, shortened: as §1
# [14] = tested on: NCI-H522; settings: Homo sapiens, NCI-H522, 48 h
# Procedure, shortened: as §1
# [15] = tested on: OVCAR-3; settings: Homo sapiens, OVCAR-3, 48 h
# Procedure, shortened: as §1
# [16] = tested on: OVCAR-5; settings: Homo sapiens, OVCAR-5, 48 h
# Procedure, shortened: as §1
# [17] = tested on: PC-3; settings: Homo sapiens, PC-3, 48 h
# Procedure, shortened: as §1
# [18] = tested on: SF-268; settings: Homo sapiens, SF-268, 48 h
# Procedure, shortened: as §1
# [19] = tested on: SNB-75; settings: Homo sapiens, SNB-75, 48 h
# Procedure, shortened: as §1
# [20] = tested on: SNB-78; settings: Homo sapiens, SNB-78, 48 h
# Procedure, shortened: as §1
# [21] = tested on: U251; settings: Homo sapiens, U-251, 48 h
# Procedure, shortened: as §1
# [22] = 48 h, inhibitor, Log GI50, 48 h
Compound,GI50 [1] [µM],GI50 [2] [µM],GI50 [3] [µM],GI50 [4] [µM],GI50 [5] [µM],GI50 [6] [µM],GI50 [7] [µM],GI50 [8] [µM],GI50 [10] [µM],GI50 [11] [µM],GI50 [12] [µM],GI50 [13] [µM],GI50 [14] [µM],GI50 [15] [µM],GI50 [16] [µM],GI50 [17] [µM],GI50 [18] [µM],GI50 [19] [µM],GI50 [20] [µM],GI50 [21] [µM],further results
C=C1CCC2C(C)(CCC=C(C)C)C(O)CCC2(C)C1Cc1c(OC)oc(CO)c(C(=O)OC)c1=O (stereo not drawn) [Compound 13],12,5.89,15.2,21.8,15.1,18.4,19.1,13.7,19.6,18.8,10.9,11.2,6.85,10.8,17.3,14.8,20.2,18.8,17.3,19.9,GI50 [9]: 13.8 µM
C=C1CC[C@@H]2[C@](C)(CC[C@H]3O[C@H](C=C(C)C)C[C@@]23C)[C@@H]1Cc1c(OC)oc(CO)c(C(=O)OC)c1=O [Compound 21],12.2,4.93,15.7,16.8,14.7,15,18.2,15.1,17.8,18.5,11.1,12.1,8.73,12,16.6,14.7,19.5,17.8,18.7,17.5,GI50 [9]: 14.2 µM
C=C1CCC2C(C)(CC(=O)C=C(C)C)C(O)CCC2(C)C1Cc1c(OC)oc(CO)c(C)c1=O (stereo not drawn) [Compound 19],14.8,6.52,42.9,–,31.6,22.8,56.2,13.6,–,78.2,11.9,6,12.4,18.4,–,24.1,69.5,53.8,36.2,69.7,GI50 [9]: 25.4 µM
C=C1CCC2C(C)(CCC=C(C)C)C(O)CCC2(C)C1Cc1c(OC)oc(C)c(C)c1=O (stereo not drawn) [Compound 11],11,0.0565,16.5,35.8,13.9,0.736,–,–,22.6,30.6,–,0.0865,1.95,3.61,42.4,–,14,27.8,21.9,22.8,GI50 [9]: 1.88 µM
C=C1CCC2C(C)(CCC=C(C)C)C(O)CCC2(C)C1Cc1c(OC)oc(C)c(C(=O)OC)c1=O (stereo not drawn) [Compound 14],10.9,0.0942,11.8,16.1,12.1,2.83,14.1,10.8,13.2,16.1,2.61,0.0735,1.54,10.3,18.6,10.1,12.8,20.1,14.7,15,GI50 [9]: 2.4 µM
"C=C1CC[C@@H]2[C@](C)(CC[C@H]3O[C@H](C=C(C)C)C[C@@]23C)[C@@H]1Cc1c(OC)oc(C)c(C)c1=O [Compound 22, O-methylated higginsianin A]",2.33,0.0601,–,11.9,7.06,1.78,10.6,1.17,–,10.2,0.729,0.0807,0.478,2.34,13.4,–,8.18,10,9.75,11.6,GI50 [9]: 1.5 µM
C=C1CC[C@@H]2[C@](C)(CC[C@H]3O[C@H](C=C(C)C)C[C@@]23C)[C@@H]1Cc1c(OC)oc(CO)c(C)c1=O [Compound 20],11.1,0.0476,12.7,15.6,12.4,10.4,14.8,10.1,13.1,14.6,–,0.0811,–,3.81,16.4,11.4,12.7,16.4,14,13.8,–
C=C1CC[C@H]2[C@]3(C)C[C@@H](C=C(C)C)O[C@H]3CC[C@]2(C)[C@@H]1Cc1c(OC)oc(CO)c(C)c1=O [Compound 17],10.8,0.0701,13.2,16.6,11.8,0.953,14.5,10.4,13.9,19.3,10.8,0.0916,10.5,10.5,15.5,11.1,13.2,16.9,14.2,14.3,–
C=C1CCC2C(C)(CC(=O)C=C(C)C)C(O)CCC2(C)C1Cc1c(O)c(C)c(C)oc1=O (stereo not drawn) [Compound 7],–,–,–,–,32.5,37.3,56,12.2,58.3,–,13.2,11.6,–,20.6,–,83,77.8,–,–,95.5,GI50 [9]: 22.6 µM
C=C1CCC2C(C)(CCC=C(C)C)C(O)CCC2(C)C1Cc1c(OC)oc(CO)c(C)c1=O (stereo not drawn) [Compound 12],–,–,11.8,13.8,8.73,2.63,12.9,–,13.5,13.7,1.95,–,1.46,4.69,19.5,4.92,12.3,18.4,13.3,15,"Log GI50 ([1]; inhibitor, Log GI50, 48 h): -4.976 M; Log GI50 [2, 22]: -7.363 M; Log GI50 ([8]; inhibitor, Log GI50, 48 h): -6.218 M; Log GI50 [13, 22]: -7.132 M"
